Data on 42 compounds can be found in patent US9683231B2, “RNAi-based method of drug screening and characterization” (Massachusetts Institute of Technology, priority 2010, dated 2017).

Starred links: 1 amine or outer side, 2 acyl side, 3 side chain; linkers in the order of their positions; H or OH if unused. Positions of bridges follow the written chain, without caps; N, C: chain ends. Non-standard residues stand in square brackets, D forms with d. Residues, ends and D or L forms follow the SMILES beside them. Chains are numbered I, II in the order given. Actinocin(9to1) = Cc1c2oc3c(C)ccc(C(=O)[*:1])c3nc-2c(C(=O)[*:2])c(N)c1=O; NMeV = CN[C@H](C(=O)O)C(C)C; Sar = CNCC(=O)O

One assay concerns Eμ-Mycp19^Arf−/− mouse lymphoma cells. Put plainly: Drug treatment and FACS viability (propidium iodide) to determine LD80-90. Type of assay: cell-based.
Settings: not given
As to `N.N.O=C([O-])C1(C(=O)[O-])CCC1.[Pt+2]` [Carboplatin], the “Concentration used (LD80-90)” value amounted to 16.4 µM.

Staying with this assay, now noted: Mus musculus, read-out: Concentration used (LD80-90).
In the case of `S=P(N1CC1)(N1CC1)N1CC1` [ThioTEPA], the IC (80-90) was found to be 2.1 µM.

Staying with this assay, now noted: Mus musculus; concentration at which 80-90% of uninfected lymphoma cells were killed; lowest viability of 24, 48 and 72 h between 10% and 20%; read-out: Concentration used (LD80-90).
As to `COc1ccc2c(c1OC)C(=O)O[C@@H]2[C@H]1c2c(cc3c(c2OC)OCO3)CCN1C` [Noscapine], the IC (80-90) turned out to be 58.1 µM.
On the same count and under the same terms, to `NC(=O)NO` [Hydroxyurea] belongs 78 µM; to `O=c1ncccn1[C@@H]1O[C@H](CO)[C@@H](O)[C@H]1O` [Zebularine], 30 µM; to `O=C(CCCCCN1C(=O)c2cccc3cccc(c23)C1=O)NO` [Scriptaid], 0.5 µM.
Take `CC[C@]1(O)C[C@H]2CN(CCc3c([nH]c4ccccc34)[C@@](C(=O)OC)(c3cc4c(cc3OC)N(C=O)[C@H]3[C@@](O)(C(=O)OC)[C@H](OC(C)=O)[C@]5(CC)C=CCN6CC[C@]43[C@@H]65)C2)C1` [Vincristine]: the IC (80-90) came to 0.0015 µM.
On to `CCN(CC)CCCCNc1ncc2cc(-c3cc(OC)cc(OC)c3)c(NC(=O)NC(C)(C)C)nc2n1` [PD 173074], for which the IC (80-90) is 4.2 µM.
With `COc1cc([C@@H]2c3cc4c(cc3[C@@H](O[C@@H]3O[C@@H]5CO[C@@H](C)O[C@H]5[C@H](O)[C@H]3O)[C@H]3COC(=O)[C@H]23)OCO4)cc(OC)c1O` [Etoposide], the IC (80-90) was determined as 0.034 µM.
Turning to `COc1c(C)cnc(Cn2cnc3c(Cl)nc(N)nc32)c1C` [BIIB021], the IC (80-90) came out at 0.79 µM.
In the case of `CO[C@H]1C[C@@H]2CC[C@@H](C)[C@@](O)(O2)C(=O)C(=O)N2CCCC[C@H]2C(=O)O[C@H]([C@H](C)C[C@@H]2CC[C@@H](O)[C@H](OC)C2)CC(=O)[C@H](C)/C=C(\C)[C@@H](O)[C@@H](OC)C(=O)[C@H](C)C[C@H](C)/C=C/C=C/C=C/1C` [Rapamycin], the IC (80-90) turned out to be 15 µM.
For `CS(=O)(=O)N1CCN(Cc2cc3nc(-c4cccc5[nH]ncc45)nc(N4CCOCC4)c3s2)CC1` [GDC 0941], the IC (80-90) was found to be 5.4 µM.
In the case of `C#Cc1cccc(Nc2ncnc3cc(OCCOC)c(OCCOC)cc23)c1` [Erlotinib], the IC (80-90) amounted to 6.5 µM.
On the same count and under the same terms, to `O=c1[nH]cc(F)c(=O)[nH]1` [5-Fluorouracil] belongs 0.0305 µM.
On the same count and under the same terms, to `Nc1nc2nc[nH]c2c(=S)[nH]1` [6-Thioguanine] belongs 0.054 µM; to `CC(C)C[C@H](NC(=O)[C@H](Cc1ccccc1)NC(=O)c1cnccn1)B(O)O` [Bortezomib], 0.013 µM.
Consider `CS(=O)(=O)OCCCCOS(C)(=O)=O` [Busulfan], for which the IC (80-90) was found to be 40.6 µM.
In the case of `COc1cc2ncnc(Nc3ccc(F)c(Cl)c3)c2cc1OCCCN1CCOCC1` [Gefitinib], the IC (80-90) came out at 12.5 µM.
In the case of `CC(=O)O[C@H]1C(=O)[C@@]2(C)[C@H]([C@H](OC(=O)c3ccccc3)[C@]3(O)C[C@H](OC(=O)[C@H](O)[C@@H](NC(=O)c4ccccc4)c4ccccc4)C(C)=C1C3(C)C)[C@]1(OC(C)=O)CO[C@@H]1C[C@@H]2O` [Paclitaxel], the IC (80-90) was determined as 0.008 µM.
Regarding `Cn1nnc2c(C(N)=O)ncn2c1=O` [Temozolomide], the IC (80-90) came out at 23.2 µM.
With `Nc1ccn([C@@H]2O[C@H](CO)[C@@H](O)C2(F)F)c(=O)n1` [Gemcitabine], the IC (80-90) was found to be 0.1 µM.
On to `CN(Cc1cnc2nc(N)nc(N)c2n1)c1ccc(C(=O)N[C@@H](CCC(=O)O)C(=O)O)cc1` [Methotrexate], for which the IC (80-90) stood at 0.033 µM.
`CC[C@]1(O)C[C@@H]2CN(CCc3c([nH]c4ccccc34)[C@@](C(=O)OC)(c3cc4c(cc3OC)N(C)[C@H]3[C@@](O)(C(=O)OC)[C@H](OC(C)=O)[C@]5(CC)C=CCN6CC[C@]43[C@@H]65)C2)C1` [Vinblastine]: the IC (80-90) came to 0.0025 µM.
On the same count and under the same terms, to `CN(N=O)C(=O)N[C@@H](C=O)[C@@H](O)[C@H](O)[C@H](O)CO` [Streptozocin] belongs 83 µM; to `CCc1c2c(nc3ccc(OC(=O)N4CCC(N5CCCCC5)CC4)cc13)-c1cc3c(c(=O)n1C2)COC(=O)[C@]3(O)CC` [Irinotecan], 2.1 µM; to `O=C1c2c(O)ccc(O)c2C(=O)c2c(NCCNCCO)ccc(NCCNCCO)c21` [Mitoxantrone], 0.0004 µM.

Still in this assay, the particulars now being: Mus musculus; read-out: Concentration used (LD80-90).
In the case of `Cn1c(CCCC(=O)O)nc2cc(N(CCCl)CCCl)ccc21` [Bendamustine], the IC (80-90) was found to be 110 µM.
`CN1C(=O)[C@]23CC4=CC=C[C@H](O)[C@H]4N2C(=O)[C@@]1(CO)SS3` [Gliotoxin]: the IC (80-90) was 0.3 µM.
On the same count and under the same terms, to `O=NN(CCCl)C(=O)NCCCl` [Carmustine] belongs 26.7 µM.
As for `CC[C@H](CO)Nc1nc(NCc2ccccc2)c2ncn(C(C)C)c2n1` [Roscovitine], the IC (80-90) was 26.7 µM.
The same measure, in the same setting: to `CC[C@H](C)[C@H](NC(=O)[C@H]([C@@H](C)CC)N(C)C(C)=O)C(=O)N[C@H](C(=O)N[C@@H](CC(C)C)C(=O)[C@@]1(C)CO1)[C@@H](C)O` [Epoxomicin] belongs 0.045 µM.
Take `Nc1nc(F)nc2c1ncn2[C@@H]1O[C@H](CO)[C@@H](O)[C@@H]1O` [Fludarabine]: the IC (80-90) was found to be 3.8 µM.
`COc1cccc2c1C(=O)c1c(O)c3c(c(O)c1C2=O)C[C@@](O)(C(C)=O)C[C@@H]3O[C@H]1C[C@H](N)[C@H](O)[C@H](C)O1` [Daunorubicin]: the IC (80-90) is 0.0225 µM.
For `C[C@@]12C(=O)OC(=O)[C@]1(C)[C@H]1CC[C@@H]2O1` [Cantharidin], the IC (80-90) was 10.7 µM.
On the same count and under the same terms, to `N[C@@H](Cc1ccc(N(CCCl)CCCl)cc1)C(=O)O` [Melphalan] belongs 3.9 µM.

Still in this assay, the particulars now being: concentration at which 80-90% of uninfected lymphoma cells were killed; lowest viability of 24, 48 and 72 h between 10% and 20%.
On to `COc1cc2ncnc(Nc3cccc(Cl)c3)c2cc1OC` [AG1478], for which the “Concentration used (LD80-90)” value was 19 µM.
As for `CCNC(=O)c1noc(-c2cc(Cl)c(O)cc2O)c1-c1ccc(OC)cc1` [VER-50589], the “Concentration used (LD80-90)” value amounted to 0.16 µM.
`O=C1C(=O)N(Cc2ccc(Cl)c(Cl)c2)c2ccccc21` [Apoptosis Activator 2]: the “Concentration used (LD80-90)” value amounted to 1.9 µM.
On the same count and under the same terms, to `COc1cc2c(cc1O)CC[C@@H]1[C@@H]2CC[C@]2(C)[C@@H](O)CC[C@@H]12` [2-Methoxyestradiol] belongs 1.8 µM; to `C=CCNC1=C2C[C@@H](C)C[C@H](OC)[C@H](O)[C@@H](C)/C=C(\C)[C@H](OC(N)=O)[C@@H](OC)/C=C\C=C(/C)C(=O)NC(=CC1=O)C2=O` [17 AAG], 2.6 µM.

Still in this assay, the particulars now being: figure legend 2c.
For the compound `Cn1c(CCCC(=O)O)nc2cc(N(CCCl)CCCl)ccc21` [Bendamustine], the LD80-90 came to 110 µM.

The assay is the same for the next values; noted with them: read-out: Concentration used (LD80-90).
As to `CO[C@@]12[C@H](COC(N)=O)C3=C(C(=O)C(C)=C(N)C3=O)N1C[C@@H]1N[C@@H]12` [Mitomycin C], the IC (80-90) stood at 0.09 µM.
`Cc1c2oc3c(C)ccc(C(=O)N[C@@H]4C(=O)N[C@H](C(C)C)C(=O)N5CCC[C@H]5C(=O)N(C)CC(=O)N(C)[C@@H](C(C)C)C(=O)O[C@@H]4C)c3nc-2c(C(=O)N[C@@H]2C(=O)N[C@H](C(C)C)C(=O)N3CCC[C@H]3C(=O)N(C)CC(=O)N(C)[C@@H](C(C)C)C(=O)O[C@@H]2C)c(N)c1=O` [Actinomycin D] (I: T[dV]P[Sar][NMeV] / II: T[dV]P[Sar][NMeV]; ester I:1-I:C, II:1-II:C; linker I:N-II:N via Actinocin(9to1)): the IC (80-90) was determined as 0.0012 µM.
